Experimental data as given in patent publication US20040019118A1, “NMDA receptor antagonists and their use in inhibiting abnormal hyperphosphorylation of microtubule associated protein tau” (priority 2002, published 2004).
Entries after “also recorded” stand apart in the source; their conditions may differ.

Columns and labels:
PP-2A = biological target: T1, PP-2A (Rattus norvegicus, UniProt P63331); experiment: PP-2A activity in extracts of treated hippocampal slice cultures; type: cell-based
T1 construct: from tissue; host or cells: organotypic culture of adult rat hippocampal slices; 16,000xg extract
T1 sequence (P63331 whole entry): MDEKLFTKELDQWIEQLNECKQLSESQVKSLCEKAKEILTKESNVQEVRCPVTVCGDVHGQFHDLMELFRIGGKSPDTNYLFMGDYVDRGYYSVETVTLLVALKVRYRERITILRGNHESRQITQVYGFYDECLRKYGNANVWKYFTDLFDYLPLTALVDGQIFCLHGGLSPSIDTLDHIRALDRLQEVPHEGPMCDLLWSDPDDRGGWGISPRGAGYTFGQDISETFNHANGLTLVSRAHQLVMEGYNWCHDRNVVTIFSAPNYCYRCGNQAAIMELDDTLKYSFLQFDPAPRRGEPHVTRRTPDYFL
Experimental: (§1) Organotypic cultures of rat hippocampal slices were prepared from 20-30 day old Wistar rats and cultured with the interface method as described previously (Stoppini, et al. 1991; Bahr, et al. 1995; Zhongrin, et al. 2000). The rats were anesthetized with ketamine (100 mg/kg body weight) and decapitated and the hippocampi were dissected out and sliced into 400 um coronal sections by a McIllwain tissue chopper. Select slices with uninterrupted bright transparent neuronal layers were plated, 1-3 slices/filter, onto Millicell CM filters (Millipore, Bedford, Mass.). For the first 2 days in vitro (DIV) cultures were maintained in 25% horse serum, 50% Basal Media-Eagle (BEM), 25% Eagle's Balanced Salt Solution (EBSS), 25 mM HEPES, 1 mM glutamine, 28 mM glucose, pH 7.2, at 32° C. in a 5% CO2 humidified atmosphere. The slice cultures were then switched to 25% horse serum, 50% BEM and EBSS modified so that the potassium concentration was 2.66 mM, for another 5 DIV. After 7 DIV, the cultures were maintained in physiological potassium containing 5% horse serum medium at 35° C. for at least 20 days before any treatment was applied. When the slices were treated, the reagents were applied into the culture medium. At different time points, the slices collected with a brush were washed twice in homogenizing buffer (50 mM HEPES, pH 7.0, 10 mM β-merceptoethanol [BME], 1 mM EDTA, 1 mM EGTA, 0.1 mM phenylmethyl sulfonyl fluoride [PMSF], 2.0 mM benzamidine and 2.0 μg/ml each of aprotinin, leupeptin and pepstatin) and homogenized at 4° C. using a Teflon-glass homogenizer. The homogenate was then divided into two parts, one was centrifuged at 16000×g for 15 min and the supernatant was used to assay activities of PP-2A and PP-1. The rest of the homogenate was diluted 1:1 with a phosphatase inhibitor cocktail (20 mM β-glycerophosphate, 2 mM Na3VO4 and 100 mM NaF, pH 7.0) and either used for Western blots or centrifuged at 16000×g for 15 min and the resulting supernatant used to determine the kinase activities.
Activities of PP-2A and PP-1 were assayed towards [^32P] phosphorylase-a as a substrate as described previously (Gong, et al. 1994). The phosphatase activity was assayed in 20 μl of reaction mixture containing 50 mM Tris, pH 7.0, 10 mM BME, 0.1 mM EDTA, 7.5 mM caffeine, 7.5 ng/μl [^32P]phosphorylase-a and 0.06 mg/ml slice culture extract. The reaction was started by adding ^32P-phosphorylase-a. After incubation for 30 min at 30° C., 7 μl of the reaction mixture was spotted on to 31 ETCHR chromatography paper which had been prespotted with 10 μl stop solution (4 mM ATP+20% TCA). Then the ^32p released was separated from the protein-incorporated ^32P by paper chromatography in 5% TCA and 0.2 M NaCl, paper strips dried, cut and counted by Cerenkov radiation. A PP-1 specific inhibitor, inhibitor-1 (Hitken, et al. 1982) was included in the assays for PP-2A activity. PP-1 activity was calculated by subtracting the PP-2A activity from the total phosphorylase-a phosphatase activity (PP-1/PP-2A) assayed in the absence of inhibitor-1.

CaMKII = CaMKII activity in extracts of treated hippocampal slice cultures; type: cell-based, rat
Experimental: as §1
CaMKII activity was measured in 25 μl of buffer containing 50 mM HEPES, pH 7.5, 10 mM MgCl2, 2.0 mM CaCl2, 10 mM BME, 10 μg/ml calmodulin (CaM), 20 μM syntide (Sigma, St Louis Mo., USA), 0.06 mg/ml slice extract and 200 μM [γ^32P]ATP. The reaction was initiated by adding [γ32p] ATP. After incubation for 10 min at 30° C., 10 μl reaction mixture was removed and spotted on to phosphocellulose membrane. The membrane was then washed five times in 1% phosphoric acid to remove non-protein incorporated ^32P, dried and counted by Cerenkov radiation. The activity of PKA was determined as above except the reaction mixture contained 70 mM NaHPO4, pH 6.8, 14 mM MgCl2, 1.4 mM EDTA, 30 μM malantide (Sigma, St Louis, Mo., USA), 200 μM [γ^32p] ATP and 0.06 mg/ml slice extract.

MAPK = MAPK activity in extracts of treated hippocampal slice cultures; type: cell-based, rat
Experimental: as §1, with “The” for “Organotypic cultures of rat hippocampal slices were prepared from 20-30 day old Wistar rats and cultured with the interface method as described previously (Stoppini, et al. 1991; Bahr, et al. 1995; Zhongrin, et al. 2000). The”, “For the first 2 days in vitro (DIV) cultures were maintained in 25% horse serum, 50% Basal Media-Eagle (BEM), 25% Eagle's Balanced Salt Solution (EBSS), 25 mM HEPES, 1 mM glutamine, 28 mM glucose, pH 7.2, at 32° C. in a 5% CO2 humidified atmosphere. The slice cultures were then switched to 25% horse serum, 50% BEM and EBSS modified so that the potassium concentration was 2.66 mM, for another 5 DIV.” left out
Immobilized protein G (Pierce, Rockford, Ill.), 20 μl, was mixed in 50 mM Tris, pH 7.4, 150 mM NACl, 10 mM NaF, 1.0 mM Na3VO4, 2.0 mM EGTA, 1 mM PMSF, 5 μg/ml leupeptin, 5 μg/ml aprotinin, 2 μg/ml pepstatin, 25 μg/ml phosphoramidon. After incubation at 4° C. overnight, the mixture was centrifuged and the beads were washed three times. The beads were then resuspended in 50 mM Tris, pH 7.4, containing 10 mM MgCl2. MAPK substrate peptide (UBI, Lake Placid, N.Y.) was employed for the MAPK assay. […]

tau = experiment: Tau phosphorylation by radioimmuno-dot-blots and 125I-Western blots of slice homogenates; type: cell-based, rat; conditions: 0.3 mM glutamate, 1 h
Experimental: as §1, with “The” for “Organotypic cultures of rat hippocampal slices were prepared from 20-30 day old Wistar rats and cultured with the interface method as described previously (Stoppini, et al. 1991; Bahr, et al. 1995; Zhongrin, et al. 2000). The”, “For the first 2 days in vitro (DIV) cultures were maintained in 25% horse serum, 50% Basal Media-Eagle (BEM), 25% Eagle's Balanced Salt Solution (EBSS), 25 mM HEPES, 1 mM glutamine, 28 mM glucose, pH 7.2, at 32° C. in a 5% CO2 humidified atmosphere. The slice cultures were then switched to 25% horse serum, 50% BEM and EBSS modified so that the potassium concentration was 2.66 mM, for another 5 DIV.” left out
Triplicate samples of each homogenate were applied to nitrocellulose membrane (Schleicher and Schuell, Keene, N.H.) and dried at 37° C.

Row | SMILES | effect on PP-2A activity (PP-2A; after 0.3 mM glutamate 1 h, 10 μM Memantine or 15 μM MK801) | CaMKII activity after replacement of glutamate (CaMKII; after 0.3 mM glutamate, fresh medium with or without 10 μM Memantine or 15 μM MK801) | effect on MAP kinase activity (MAPK; after 0.3 mM glutamate, 10 μM Memantine or 15 μM MK801) | change in PP-2A activity (PP-2A; 0.3 mM glutamate, 1 h) | CaMKII activity as % of control (CaMKII; 0.3 mM glutamate, 1 h) [%] | change in CaMKII activity (CaMKII; 0.3 mM glutamate, 1 h) | change in MAPK activity (MAPK; 0.3 mM glutamate, 1 h) | phosphorylation of tau at Ser-262 (tau)
1 | C[C@]12N[C@H](Cc3ccccc31)c1ccccc12 [MK801] | no effect | restored the CaMKII activity to normal level | no effect | – | – | – | – | –
2 | N[C@@H](CCC(=O)O)C(=O)O [glutamate] | – | – | – | did not induce any detectable change; also recorded: not accompanied by any changes; also recorded: without any effect | ~180 | marked increase | did not induce any detectable change; also recorded: not accompanied by any changes; also recorded: without any effect | increased markedly
